Data set [1] is described as follows: Dynamic investigation of the Ene-ligation of i^6A with PTAD by proton NMR. In kind it is physicochemical. Conditions: i^6A 30 mM, PTAD 0.15 mmol, CD3CN/D2O (v/v, 1/1), room temperature, within 5 minutes. The method, then: Nucleoside i^6A (4, 10 mg, 0.03 mmol) were dissolved in CD3CN/D2O (1.0 mL, v/v=1:1, final concentration=30 mM). PTAD (5, 26 mg, 0.15 mmol) was then added to the solution (final concentration=150 mM), and the reaction mixture was allowed to stand at room temperature. The ^1H NMR spectra were recorded by proton NMR (400 MHz).
The nucleoside i^6A (10 mg, 0.03 mmol) was dissolved in a mixture of CD3CN and D2O (0.5 mL, volume-to-volume ratio of 4:1, resulting in a final concentration of 60 mM). Subsequently, 4-phenyl-3H-1,2,4-triazole-3,5(4H)-dione (PTAD, 26 mg, 0.15 mmol, equivalent to 5 times the amount of i^6A) was added to the solution (resulting in a final concentration of 300 mM). The reaction mixture was then allowed to stand at room temperature. The ^1H NMR spectra were obtained using a 400 MHz ^1H NMR instrument with CD3CN/D2O as the solvent.

A short description of data set [2]: Iodine-mediated cyclisation of nucleoside i^6A. The note with it: optimized concentration of iodine reagent. In kind it is physicochemical. Here is the method: Model reactions of i^6A nucleoside (4). The model reactions were carried out in DMSO-d6 in order to facilitate in situ NMR characterization without further purification. i^6A (4, 0.15 mmol) was dissolved in DMSO-d6 (0.5 mL), and iodine (0.45 mmol) was added. The mixture was stirred at 37° C. for 5 minutes and was taken out for ^1H NMR.
The reactions were conducted in DMSO-d^6 to enable in situ NMR characterization without the need for additional purification. i^6A (4, 0.15 mmol) was dissolved in DMSO-d^6 (0.5 mL), and iodine (0.45 mmol in DMSO-d^6) was subsequently added to the solution. The mixture was then stirred at 37° C. for 5 minutes. After this incubation period, the reaction mixture was subjected to ^1H NMR, ^13C NMR, HPLC, UV and LC-MS analysis.

Data set [3] deals with HeLa cells. Description: Cytotoxic assays of i^6A (4) towards HeLa cells. In kind it is cell-based. An excerpt: In order to better detect the involvement of i^6A (4) in the transcription process of cellular RNA, we also tested the effect of i^6A (4) on cytotoxicity and optimized the concentration of i^6A (4) to treat cells.
Data set [4] relates to HeLa cells. The data set is described as follows: Incorporation of i^6A into total RNA of eukaryotic cells, detected with PTAD-DBCO-FITC (8). In kind it is cell-based. The method, then:
Next, we will further test whether i^6A (4) can participate in the RNA transcription process in eukaryotic cells. First culture the HeLa cells in a six-well plate to 70%-80%. […] After 12 hours of culture, collect all cells and extract total RNA.
To the 1.5 mL Eppendorf tube containing PTAD-DBCO-FITC precursor (7, 10 μL, 10 mM solution in DMF) was added N-bromo succinimide (1.0 μL, 100 mM in DMF). The mixture was vortexed gently and formation of the light-red color was observed. The reagent was kept on ice and used for the i^6A-incorporated RNA labelling immediately. Labeling protocol is the same stated above.
HeLa cells was obtained from ATCC. HeLa cells were cultured in DMED medium with 10% fetal calf serum. Cells were maintained in a humidified incubator at 5% CO2 and 37° C. To label RNA in vivo, HeLa cells were cultured in 6-well plates to 70%-80%. […] Then it will be detected by agarose gel electrophoresis. […]
The i^6A-incorporated total RNA ([…], 20 ng/mL in DEPC water) was incubated with PTAD-DBCO-FITC ([…] of a 0.1 mM solution), shaken for 30 minutes at 0° C. The RNA was then analyzed through gel electrophoresis on a 1% agarose gel. […] Gels were analyzed by in-gel fluorescence measurements on a FluorChem® FC3 imager (Alpha Innotech). Fluorescence was measured with a blue light excitation wavelength (475 nm) and a green filter emission (537 nm).

Data set [5] addresses SelU (Escherichia coli, UniProt P33667). In kind it is biochemical, E. coli. Conditions: for modified RNA residues after click reaction and RNase cleavage (recognition by SelU): HPLC and MS-spec data.
Data set [6] concerns prenylated tRNA. The data set is described as follows: Direct fluorescent labelling of prenylated tRNA by Ene-ligation, in-gel fluorescence. Conditions: 10 μM probe; total RNAs isolated from E. coli. Here is the method:
tRNA (1.0 mg) isolated from E. coli using Zymo purification kit strictly following the instruction protocol was dissolved in PBS buffer (0.1 M, pH=7.4) and the PTAD-DBCO-Cy5 probe (1.0 mM) generated by in-situ oxidation with N-bromosuccinimide (NBS, 1 M in DMF) was added in one portion at 4° C. The mixture was incubated at 4° C. for 15 min in a sterile tube. And excess fluorescent probe was removed by 3K filter (Millipore) and the resulting nucleic acid was analyzed by in-gel fluorescence (Scheme S8).

Data set [7] has as its system HEK293T cells. The data set is described as follows: In-cell fluorescent labelling of SelU-mediated tRNA geranylation, confocal imaging. In kind it is cell-based. The method, then: The HEK293T cells were washed twice with PBS, and trypsin was added for 1 min. Then 2.0 mL DMEM medium was added to the mixed well, followed by centrifuged at 1,000 r.p.m for 5 min, and the supernatant was discarded. Fresh medium was added to resuspend the cell pellet and cells were seeded in a confocal dish at the density of 0.5×1 05, the cells were gently mixed using pipette, and then placed in CO2 incubator. 150 mM sterile NaCl solution was prepared as a diluent for DNA and Vigofect (Vigorous Biotechnology Beijing Co., Ltd.). The culture medium in the confocal dish was then replaced with fresh complete culture medium before transfection, and the culture was incubated at 37° C. under 5% CO2 atmosphere. […] Configure the transfection working solution. […] Next, 2.5 μl VigoFect was added to the diluent (total 100 μl), and the solution was mixed gently and placed at room temperature for 5 min. Next, the diluted VigoFect was added into the diluted DNA solution gently, and the resulting transfection working solution was incubated at room temperature for 15 min. Subsequently, the working solution was added to the cell culture, mixed gently and incubated for 24 h. […] Cells were washed with PBS 3 times and then fixed with 4% paraformaldehyde for 15 min, and subsequently permeabilized with 0.5% Triton X-100 for 15 min. […]

Data set [8] has as its target T7 RNA polymerase (Escherichia phage T7, UniProt P00573).
Procedure: Using the T7P-EGFP constructed above as a template and rNTP as substrates, the reaction was carried out at 37° C. for 2 hours which was catalyzed by T7 RNA polymerase. After the reaction, the template DNA T7P-EGFP was degraded with DNase I. Finally, the RNA was precipitated and purified, and the transcription effect of the RNA was detected by agarose gel electrophoresis. The T7P-EGFP template sequence and HeLa genomic RNA were used as the control group.
EGFP-RNA was transcript with T7 transcription kit (Takara) in vitro. The system was kept at 37° C. for 2 hours. 1-4 extended to 6 hours. Then the templets were digested with DNase 1, 37° C. for 30 minutes. […] RNA concentration was determined with a Nanodrop One microvolume UV-Vis. spectrophotometer.

The values below come from patent publication US20240376069A1, “COMPOUNDS AND METHODS FOR LABELING LIPIDATED NUCLEOTIDES” (The Research Foundation for The State University of New York, priority 2023, published 2024).

Sequence of SelU (P33667 whole entry): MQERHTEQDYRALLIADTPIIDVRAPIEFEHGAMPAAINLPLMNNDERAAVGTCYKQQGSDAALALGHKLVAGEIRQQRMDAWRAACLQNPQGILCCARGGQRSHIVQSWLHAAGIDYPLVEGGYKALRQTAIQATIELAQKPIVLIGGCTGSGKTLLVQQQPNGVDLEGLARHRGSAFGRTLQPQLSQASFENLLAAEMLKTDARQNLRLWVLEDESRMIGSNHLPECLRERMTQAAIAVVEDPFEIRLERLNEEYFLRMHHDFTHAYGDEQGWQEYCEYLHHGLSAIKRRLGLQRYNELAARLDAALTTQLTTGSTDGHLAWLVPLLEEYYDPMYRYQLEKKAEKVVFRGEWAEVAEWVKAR
Sequence of T7 RNA polymerase (P00573 whole entry): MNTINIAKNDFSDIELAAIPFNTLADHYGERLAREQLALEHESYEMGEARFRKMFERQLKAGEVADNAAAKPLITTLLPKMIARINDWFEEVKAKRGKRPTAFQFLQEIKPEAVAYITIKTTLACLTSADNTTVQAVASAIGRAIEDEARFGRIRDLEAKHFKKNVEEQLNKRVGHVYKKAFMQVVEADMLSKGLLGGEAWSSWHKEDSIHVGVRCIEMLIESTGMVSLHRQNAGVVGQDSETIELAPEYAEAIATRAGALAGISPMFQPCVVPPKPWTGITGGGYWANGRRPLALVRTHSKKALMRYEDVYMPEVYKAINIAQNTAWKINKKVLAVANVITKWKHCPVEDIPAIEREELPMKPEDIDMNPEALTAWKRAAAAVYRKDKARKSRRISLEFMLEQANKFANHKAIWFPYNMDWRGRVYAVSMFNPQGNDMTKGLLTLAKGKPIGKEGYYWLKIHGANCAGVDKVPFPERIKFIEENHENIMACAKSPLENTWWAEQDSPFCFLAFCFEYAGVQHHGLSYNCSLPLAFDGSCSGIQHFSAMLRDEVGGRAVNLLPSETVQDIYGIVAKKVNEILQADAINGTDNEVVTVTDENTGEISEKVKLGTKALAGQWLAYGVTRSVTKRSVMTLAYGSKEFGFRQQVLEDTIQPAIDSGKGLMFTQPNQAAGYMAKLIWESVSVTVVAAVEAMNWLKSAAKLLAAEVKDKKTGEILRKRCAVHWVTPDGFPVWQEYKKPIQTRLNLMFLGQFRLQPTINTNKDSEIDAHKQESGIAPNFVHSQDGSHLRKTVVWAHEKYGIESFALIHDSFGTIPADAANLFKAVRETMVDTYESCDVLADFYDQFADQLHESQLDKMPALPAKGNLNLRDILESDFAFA

For the compound `CC(C)=CCNc1ncnc2c1ncn2[C@@H]1O[C@H](CO)[C@@H](O)[C@H]1O` [i^6A (4), N^6-(3-methylbut-2-enyl)-adenosine], in data set [1], the “conversion yield in reaction with PTAD” value is “approximately 50%”. The “time to full conversion with iodine” value in data set [2] is recorded as “less than 5 minutes”. In data set [3] (HeLa cells), this compound displayed a cytotoxic concentration of 800 µM. The “effect on cell viability” value is “cell viability will be significantly inhibited” in data set [3] (concentration 800 μM) and “little effect on cell viability” in data set [3] (concentration within 400 μM). Further, the effect on cells result in data set [3] (concentration 2.0 mM) is reported as “significant inhibitory effect on cells”. In addition, the “fluorescence signal of total RNA after PTAD-DBCO-FITC (8) staining” value is reported as “significant fluorescence signal was detected” in data set [4] (cells cultured in the presence of i^6A, none in control group) and “weaker RNA fluorescence signal” in data set [4] (i^6A 800 μM).
`CC(C)=CCCC(C)CCOP(=O)(O)OP(=O)(O)O` (centres unmarked) [Ge2, 3,7-dimethyloct-6-en-1-yl pyrophosphate]: in data set [5], the “modified RNA residues after click reaction and RNase cleavage (recognition by SelU)” value is recorded as “no modified RNA residues”.
Consider `CC(C)=CCCOP(=O)(O)OP(=O)(O)O` [Ge3, 4-methylpent-3-en-1-yl Diphosphate Tetrabutyl Ammonium Trimer], for which the “modified RNA residues after click reaction and RNase cleavage (recognition by SelU)” value in data set [5] is on record as “no modified RNA residues”.
`CN1/C(=C/C=C/C=C/C2=[N+](CCCCCC(=O)NCCC(=O)N3Cc4ccccc4-c4c(nnn4CCOc4ccc(N5C(=O)N=NC5=O)cc4)-c4ccccc43)c3ccccc3C2(C)C)C(C)(C)c2ccccc21.[Cl-]` [PTAD-DBCO-Cy5]: the “fluorescent signal of total RNAs treated with the probe” value in data set [6] was “a red fluorescent signal was observed”.
Turning to `C/C(=C\COP(=O)(O)OP(=O)(O)O)CC/C=C(\C)COC(=O)CCC(=O)N1Cc2ccccc2C#Cc2ccccc21` [Ge7], the “fluorescent labelling of tRNA^Gln, Glu, Lys after SelU-mediated transfer of the ligand” value in data set [5] is reported as “failed”.
With `C/C(=C\COP(=O)(O)OP(=O)(O)O)CC/C=C(\C)CN=[N+]=[N-]` [Ge5], the “red fluorescence in cells, two-step ACT-Flu approach” value in data set [7] (SelU co-transfected, probe DBCO-Cy5) is on record as “strong red florescence”. Also, the “fluorescent labelling of tRNA^Gln, Glu, Lys after SelU-mediated transfer of the ligand” value in data set [5] is on record as “efficient fluorescent signal of tRNA was observed”.
Turning to `CC(C)=CCNc1ncnc2c1ncn2C1OC(COP(=O)(O)OP(=O)(O)OP(=O)(O)O)C(O)C1O` (centres unmarked) [i^6ATP], in data set [8] (compared with K4, preliminary experiments), the “recognition efficiency of T7 RNA polymerase” value was “significantly higher than that of K4”. Besides, the “recognition efficiency by T7 RNA polymerase” value in data set [8] (compared with rATP) is “low comparing with rATP”.
Consider `CC(C)=CCC/C(C)=C/COP(=O)(O)OP(=O)(O)O` [Ge1, (E)-3,7-dimethylocta-2,6-dien-1-yldiphosphate Tetrabutylammonium Trimer, reference compound], for which the “red fluorescence of geranylated tRNA in cells, direct labelling” value in data set [7] (transfected SelU and 5s (tRNA^Lys), probe PTAD-DBCO-Cy5) is reported as “clearly showed the red fluorescence”.
